# Test results as given in patent US12685716B1 (priority 2022, dated 2026).
# Tested on: subject with AF/AFL
# Experiment: Initiation of IV sotalol followed by first oral dose and same-day discharge (case Examples 1-12)
# Assay type: in vivo, human
# Description: • 1. After admission, obtain baseline parameters including QTc interval, HR, BP. • 2. […] Monitor QTc interval, HR, BP every 15 minutes during infusion. • 4. Administer first oral dose at the appropriate time based on renal function. For CrCl≥60 mL/min, oral administration time is planned 4 hours following the completion of IV infusion. For CrCl=30-59 mL/min, oral administration time is planned 6 hours following the completion of IV infusion. • 5. Obtain monitoring parameters including QTc interval, HR, BP at about 2 hours after oral administration. • 6. […] At arrival, baseline labs were obtained, and the subject was placed on continuous electrocardiogra monitoring. […] At arrival, baseline labs were obtained, and the subject was placed on continuous electrocardiography monitoring. […] At arrival, baseline labs were obtained, and the subject was placed on continuous electrocardiography monitoring. […] At arrival, baseline labs were obtained, and the subject was placed on continuous electrocardiography monitoring. […] At arrival, baseline labs were obtained, and the subject was placed on continuous electrocardiography monitoring. […] At arrival, baseline labs were obtained, and the subject was placed on continuous electrocardiography monitoring. […] At arrival, baseline labs were obtained, and the subject was placed on continuous electrocardiography monitoring. […] At arrival, baseline labs were obtained, and the subject was placed on continuous electrocardiography monitoring. […] At arrival, baseline labs were obtained, and the subject was placed on continuous electrocardiography monitoring. […] At arrival, baseline labs were obtained, and the subject was placed on continuous electrocardiography monitoring. […] At arrival, baseline labs were obtained, and the subject was placed on continuous electrocardiography monitoring. […] At arrival, baseline labs were obtained, and the subject was placed on continuous electrocardiography monitoring.
# [1] = Example 1: IV 82.5 mg, DCCV, PO 80 mg 4 h after IV completion
# [2] = Example 2: IV 82.5 mg, PO 80 mg 4 h after IV completion
# [3] = Example 3: IV 75 mg, DCCV, PO 80 mg 5.5 h after IV completion
# [4] = Example 4: IV 75 mg, DCCV, PO 80 mg 6.5 h after IV completion
# [5] = Example 5: IV 75 mg, DCCV, PO 80 mg 5 h after IV completion
# [6] = Example 6: IV 75 mg, DCCV, PO 80 mg 5.5 h after IV completion
# [7] = Example 7: IV 60 mg, PO 120 mg 5 h after IV completion, second DCCV
# [8] = Example 8: IV 82.5 mg, DCCV, PO 80 mg 4 h after IV completion
# [9] = Example 9: IV 90 mg, DCCV, PO 120 mg 3.5 h after IV completion
# [10] = Example 10: IV 75 mg, DCCV, PO 80 mg 6 h after IV completion
# [11] = Example 11: IV 75 mg, DCCV, PO 80 mg 6 h after IV completion
# [12] = Example 12: IV 75 mg, DCCV, PO 80 mg 6 h after IV completion
structure (smiles),measurement,setting,value
"CC(C)NCC(O)c1ccc(NS(C)(=O)=O)cc1 (stereo not shown) [sotalol, d,1-sotalol]","Monitoring parameters (QTc, HR, BP) two hours after oral administration",[1],within normal limits
same,Rhythm two hours after oral administration,[1],remained in NSR
same,Rhythm conversion after IV sotalol infusion,"Example 1: person, persistent AF/AFL, IV 82.5 mg over 1 h, then DCCV",converted from AF to NSR
same,"Monitoring parameters (QTc, HR, BP) two hours after oral administration",[2],within normal limits
same,Rhythm two hours after oral administration,[2],remained in NSR
same,Rhythm conversion after IV sotalol infusion,"Example 2: person, paroxysmal AF and PVCs, IV 82.5 mg over 1 h, no DCCV",converted from AF to NSR
same,Monitoring parameters including QTc two hours after oral administration,[3],within normal limits
same,Rhythm two hours after oral administration,[3],remained in NSR
same,Rhythm conversion after IV sotalol infusion,"Example 3: person, persistent AF, CrCl 30 mL/min, IV 75 mg over 1 h, then DCCV",converted from AF to NSR
same,Monitoring parameters including QTc two hours after oral administration,[4],within normal limits
same,Rhythm two hours after oral administration,[4],remained in NSR
same,Rhythm conversion after IV sotalol infusion,"Example 4: person, persistent AF, CrCl 38 mL/min, IV 75 mg over 1 h, then DCCV",converted from AF to NSR
same,Monitoring parameters including QTc two hours after oral administration,[5],within normal limits
same,Rhythm two hours after oral administration,[5],remained in NSR
same,Rhythm conversion after IV sotalol infusion,"Example 5: person, persistent AF, CrCl 37 mL/min, IV 75 mg over 1 h, then DCCV",converted from AF to NSR
same,Monitoring parameters including QTc two hours after oral administration,[6],within normal limits
same,Rhythm two hours after oral administration,[6],remained in NSR
same,Rhythm conversion after IV sotalol infusion,"Example 6: person, PVCs and paroxysmal AF, CrCl 41 mL/min, IV 75 mg over 1 h, then DCCV",converting the subject from AF to NSR
same,"Monitoring parameters (QTc, HR, BP) two hours after oral administration",[7],within normal limits
same,Rhythm two hours after oral administration,[7],remained in NSR
same,Rhythm conversion after first oral dose and second DCCV,"Example 7: IV 60 mg, PO 120 mg 5 h after IV completion, then second DCCV",converted from AF to NSR
same,Rhythm conversion after IV sotalol infusion and first DCCV attempt,"Example 7: person, persistent AF, IV 60 mg over 1 h, then first DCCV",failed to convert
same,"Monitoring parameters (QTc, HR, BP) two hours after oral administration",[8],within normal limits
same,Rhythm two hours after oral administration,[8],remained in NSR
same,Rhythm conversion after IV sotalol infusion,"Example 8: person, persistent AF, IV 82.5 mg over 1 h, then DCCV",converted from AF to NSR
same,"Monitoring parameters (QTc, HR, BP) two hours after oral administration",[9],within normal limits
same,Rhythm two hours after oral administration,[9],remained in NSR
same,Rhythm conversion after IV sotalol infusion,"Example 9: person, persistent AF, IV 90 mg over 1 h, then DCCV",converting the subject from AF to NSR
same,"Monitoring parameters (QTc, HR, BP) two hours after oral administration",[10],within normal limits
same,Rhythm two hours after oral administration,[10],remained in NSR
same,Rhythm conversion after IV sotalol infusion,"Example 10: person, persistent AF, CrCl 56 mL/min, IV 75 mg over 1 h, then DCCV",converted from AF to NSR
same,"Monitoring parameters (QTc, HR, BP) two hours after oral administration",[11],within normal limits
same,Rhythm two hours after oral administration,[11],remained in NSR
same,Rhythm conversion after IV sotalol infusion,"Example 11: person, persistent AF, CrCl 50 mL/min, IV 75 mg over 1 h, then DCCV",converted from AF to NSR
same,"Monitoring parameters (QTc, HR, BP) two hours after oral administration",[12],within normal limits
same,Rhythm two hours after oral administration,[12],remained in NSR
same,Rhythm conversion after IV sotalol infusion,"Example 12: person, PVCs and persistent AF, CrCl 53 mL/min, IV 75 mg over 1 h, then DCCV",converted from AF to NSR
